| melting point [°C] | SMILES |
| --- | --- |
| 214 to 217 | Cc1ccc(-c2c(-c3ccncc3)nc(-c3c(Cl)cccc3Cl)n2C)cc1 [Example 1, 4-[2-(2,6-Dichloro-phenyl)-1-methyl-5-(4-methyl-phenyl)-1H-imidazol-4-yl]-pyridine] |
| 204 to 207 | Cc1ccc(-c2c(-c3ccncc3)nc(-c3c(C)cc(C)cc3C)n2C)cc1 [Example 2, 4-[1-Methyl-5-(4-methyl-phenyl)-2-(2,4,6-trimethyl-phenyl)-1H-imidazol-4-yl]-pyridine] |
| 137 to 140 | CCn1c(-c2c(C)cc(C)cc2C)nc(-c2ccncc2)c1-c1ccc(C)cc1 [Example 4, 4-[1-Ethyl-5-(4-methyl-phenyl)-2-(2,4,6-trimethyl-phenyl)-1H-imidazol-4-yl]-pyridine] |
| 193 to 196 | CCn1c(-c2c(Cl)cccc2Cl)nc(-c2ccncc2)c1-c1ccc(Cl)cc1 [Example 5, 4-[5-(4-Chloro-phenyl)-2-(2,6-dichloro-phenyl)-1-ethyl-1H-imidazol-4-yl]-pyridine] |
| 191 to 193 | CCn1c(-c2c(C)cc(C)cc2C)nc(-c2ccncc2)c1-c1ccc(Cl)cc1Cl [Example 6, 4-[1-Ethyl-5-(2,4-dichloro-phenyl)-2-(2,4,6-trimethyl-phenyl)-1H-imidazol-4-yl]-pyridine] |
| 202 to 205 | CCn1c(-c2c(C)cc(C)cc2C)nc(-c2ccncc2)c1-c1ccc(C(C)(C)C)cc1 [Example 7, 4-[5-(4-tert-Butyl-phenyl)-1-ethyl-2-(2,4,6-trimethyl-phenyl)-1H-imidazol-4-yl]-pyridine] |
| 173 to 175 | CCn1c(-c2ccccc2C)nc(-c2ccncc2)c1-c1ccc(Cl)cc1 [Example 8, 4-[5-(4-Chloro-phenyl)-1-ethyl-2-(2-methyl-phenyl)-1H-imidazol-4-yl]-pyridine] |
| 267 to 270 | CCn1c(-c2ccccc2)nc(-c2ccncc2)c1-c1ccc(Cl)cc1 [Example 9, 4-[5-(4-Chloro-phenyl)-1-ethyl-2-phenyl-1H-imidazol-4-yl]-pyridine] |
| 194 to 196 | CCn1c(-c2c(C)cc(C)cc2C)nc(-c2ccncc2)c1-c1ccc(F)cc1 [Example 10, 4-[1-Ethyl-5-(4-fluoro-phenyl)-2-(2,4,6-trimethyl-phenyl)-1H-imidazol-4-yl]-pyridine] |
| 226 to 227 | CCn1c(-c2c(C)cc(C)cc2C)nc(-c2ccncc2)c1-c1ccc(Cl)cc1 [Example 12, 4-[5-(4-Chloro-phenyl)-1-ethyl-2-(2,4,6-trimethyl-phenyl)-1H-imidazol-4-yl]-pyridine] |
| 227 to 228 | CCn1c(-c2c(C)cc(C)cc2C)nc(-c2ccncc2)c1-c1ccc(C(F)(F)F)cc1 [Example 13, 4-[1-Ethyl-5-(4-trifluoromethyl-phenyl)-2-(2,4,6-trimethyl-phenyl)-1H-imidazol-4-yl]-pyridine] |
| 171 to 173 | CCn1c(-c2c(C)cccc2C)nc(-c2ccncc2)c1-c1ccc(Cl)cc1 [Example 14, 4-[5-(4-Chloro-phenyl)-2-(2,6-dimethyl-phenyl)-1-ethyl-1H-imidazol-4-yl]-pyridine] |
| 144 to 147 | CCn1c(-c2ccccc2Cl)nc(-c2ccncc2)c1-c1ccc(Cl)cc1 [Example 15, 4-[5-(4-Chloro-phenyl)-2-(2-chloro-phenyl)-1-ethyl-1H-imidazol-4-yl]-pyridine] |
| 144 to 147 | CCn1c(-c2ccccc2Br)nc(-c2ccncc2)c1-c1ccc(Cl)cc1 [Example 16, 4-[2-(2-Bromo-phenyl)-5-(4-chloro-phenyl)-1-ethyl-1H-imidazol-4-yl]-pyridine] |
| 188 to 190 | CCn1c(-c2c(C)cccc2Cl)nc(-c2ccncc2)c1-c1ccc(Cl)cc1 [Example 17, 4-[2-(2-Chloro-6-methyl-phenyl)-5-(4-chloro-phenyl)-1-ethyl-1H-imidazol-4-yl]-pyridine] |
| 255 to 256 | CCn1c(-c2c(OC)cc(OC)cc2OC)nc(-c2ccncc2)c1-c1ccc(Cl)cc1 [Example 18, 4-[5-(4-Chloro-phenyl)-1-ethyl-2-(2,4,6-trimethoxy-phenyl)-1H-imidazol-4-yl]-pyridine] |
| 209 to 210 | C=CCn1c(-c2c(C)cc(C)cc2C)nc(-c2ccncc2)c1-c1ccc(C(F)(F)F)cc1 [Example 20, 4-[1-Allyl-5-(4-trifluoromethyl-phenyl)-2-(2,4,6-trimethyl-phenyl)-1H-imidazol-4-yl]-pyridine] |
| 151 to 154 | C=CCn1c(-c2c(C)cc(C)cc2C)nc(-c2ccncc2)c1-c1ccc(Cl)cc1 [Example 21, 4-[1-Allyl-5-(4-chloro-phenyl)-2-(2,4,6-trimethyl-phenyl)-1H-imidazol-4-yl]-pyridine] |
| 163 to 165 | C=CCn1c(-c2c(Cl)cccc2Cl)nc(-c2ccncc2)c1-c1ccc(Cl)cc1 [Example 22, 4-[1-Allyl-5-(4-chloro-phenyl)-2-(2,6-dichloro-phenyl)-1H-imidazol-4-yl]-pyridine] |

| melting point [°C] | SMILES |
| --- | --- |
| 115 to 118 | C=CCn1c(-c2c(C)cc(C)cc2C)nc(-c2ccncc2)c1-c1ccc(C)cc1 [Example 23, 4-[1-Allyl-5-(4-methyl-phenyl)-2-(2,4,6-trimethyl-phenyl)-1H-imidazol-4-yl]-pyridine] |
| 213 to 214 | FC(F)(F)Cn1c(-c2c(Cl)cccc2Cl)nc(-c2ccncc2)c1-c1ccc(Cl)cc1 [Example 25, 4-[5-(4-Chloro-phenyl)-2-(2,6-dichloro-phenyl)-1-(2,2,2-trifluoro-ethyl)-1H-imidazol-4-yl]-pyridine] |
| 233 to 235 | OCCCn1c(-c2c(Cl)cccc2Cl)nc(-c2ccncc2)c1-c1ccc(Cl)cc1 [Example 29, 3-[5-(4-Chloro-phenyl)-2-(2,6-dichloro-phenyl)-4-pyridin-4-yl-imidazol-1-yl]-propan-1-ol] |
| 148 to 150 | CCn1c(-c2ccc(C(F)(F)F)cc2C(F)(F)F)nc(-c2ccncc2)c1-c1ccc(Cl)cc1 [Example 30, 4-[2-(2,4-Bis-trifluoromethyl-phenyl)-5-(4-chloro-phenyl)-1-ethyl-1H-imidazol-4-yl]-pyridine] |
| 167 to 169 | CCn1c(-c2ccnc3ccccc23)nc(-c2ccncc2)c1-c1ccc(Cl)cc1 [Example 32, 4-[5-(4-Chloro-phenyl)-1-ethyl-4-pyridin-4-yl-1H-imidazol-2-yl]-quinoline] |
| 279 to 280 | CCn1c(-c2cc3ccccc3[nH]2)nc(-c2ccncc2)c1-c1ccc(Cl)cc1 [Example 33, 2-[5-(4-Chloro-phenyl)-1-ethyl-4-pyridin-4-yl-1H-imidazol-2-yl]-1H-indole] |
| 100 to 102 | CCC(CC)c1nc(-c2ccncc2)c(-c2ccc(Cl)cc2)n1C [Example 36, 4-[5-(4-Chloro-phenyl)-2-(1-ethyl-propyl)-1-methyl-1H-imidazol-4-yl]-pyridine] |
| 199 to 200 | CCn1c(C(c2ccccc2)c2ccccc2)nc(-c2ccncc2)c1-c1ccc(Cl)cc1 [Example 39, 4-[2-Benzhydryl-5-(4-chloro-phenyl)-1-ethyl-1H-imidazol-4-yl]-pyridine] |
| 221 to 223 | CCn1c(C(O)(C(C)C)C(C)C)nc(-c2ccncc2)c1-c1ccc(Cl)cc1 [Example 41, 3-[5-(4-Chloro-phenyl)-1-ethyl-4-pyridin-4-yl-1H-imidazol-2-yl]-2,4-dimethyl-pentan-3-ol] |
| 159 to 160 | C=CCC(O)(CC=C)c1nc(-c2ccncc2)c(-c2ccc(Cl)cc2)n1CC [Example 42, 4-[5-(4-Chloro-phenyl)-1-ethyl-4-pyridin-4-yl-1H-imidazol-2-yl]-hepta-1,6-dien-4-ol] |
| 222 to 223 | CCn1c(C(O)(c2ccccc2)c2ccccc2)nc(-c2ccncc2)c1-c1ccc(Cl)cc1 [Example 44, [5-(4-Chloro-phenyl)-1-ethyl-4-pyridin-4-yl-1H-imidazol-2-yl]-diphenyl-methanol] |
| 193 to 195 | CCn1c(C(O)(c2cccc(C(F)(F)F)c2)c2cccc(C(F)(F)F)c2)nc(-c2ccncc2)c1-c1ccc(Cl)cc1 [Example 45, [5-(4-Chloro-phenyl)-1-ethyl-4-pyridin-4-yl-1H-imidazol-2-yl]-bis-(3-trifluoromethyl-phenyl)-methanol] |
| 225 to 227 | CCn1c(C(O)(c2cccc(F)c2)c2cccc(F)c2)nc(-c2ccncc2)c1-c1ccc(Cl)cc1 [Example 46, [5-(4-Chloro-phenyl)-1-ethyl-4-pyridin-4-yl-1H-imidazol-2-yl]-bis-(3-fluoro-phenyl)-methanol] |
| 116 to 117 | CCn1c(C(O)(Cc2ccccc2)Cc2ccccc2)nc(-c2ccncc2)c1-c1ccc(Cl)cc1 [Example 48, 2-[5-(4-Chloro-phenyl)-1-ethyl-4-pyridin-4-yl-1H-imidazol-2-yl]-1,3-diphenyl-propan-2-ol] |
| 220 to 222 | CCCn1c(-c2c(Cl)cccc2Cl)nc(-c2ccncc2)c1-c1ccc(Cl)cc1 [Example 49, 4-[5-(4-Chloro-phenyl)-2-(2,6-dichloro-phenyl)-1-propyl-1H-imidazol-4-yl]-pyridine] |
| 200 to 201 | CCCn1c(-c2c(Cl)cccc2Cl)nc(-c2ccncc2)c1-c1ccc(C)cc1 [Example 50, 4-[2-(2,6-Dichloro-phenyl)-1-propyl-5-(4-methyl-phenyl)-1H-imidazol-4-yl]-pyridine] |
| 134 to 136 | CCCn1c(-c2c(C)cc(C)cc2C)nc(-c2ccncc2)c1-c1ccc(C)cc1 [Example 51, 4-[1-Propyl-5-(4-methyl-phenyl)-2-(2,4,6-trimethyl-phenyl)-1H-imidazol-4-yl]-pyridine] |
| 222 to 223 | CCn1c(C(OCCO)(c2cccc(C(F)(F)F)c2)c2cccc(C(F)(F)F)c2)nc(-c2ccncc2)c1-c1ccc(Cl)cc1 [Example 52, 2-[[5-(4-Chloro-phenyl)-1-ethyl-4-pyridin-4-yl-1H-imidazol-2-yl]-bis-(3-trifluoromethyl-phenyl)-methoxy]-ethanol] |
| 184 to 186 | CCn1c(C(c2cccc(F)c2)c2cccc(F)c2)nc(-c2ccncc2)c1-c1ccc(Cl)cc1 [Example 53, 4-[2-[Bis-(3-fluoro-phenyl)-methyl]-5-(4-chloro-phenyl)-1-ethyl-1H-imidazol-4-yl]-pyridine] |

From patent US20060173048A1, “Imidazole derivatives” (priority 2005, published 2006)
